Measurements taken from the COVID Moonshot data (paper PMC7615835).
pIC50: −log10 of the molar value. Where “and” joins values, the source holds several entries; their conditions need not be identical. Identical values can stand only once.

How the values were obtained:
[1] = in vivo, iv, 0.5 mg/kg
[2] = target: SARS-CoV-2 Main Protease (SARS-CoV-2) (UniProt P0DTD1)

Structure (SMILES) | AUC(0-inf) ([1]; rat) | AUC(0-t) ([1]; rat) | C0 ([1]; rat) | MRT inf ([1]; rat) | MRT last ([1]; rat) | Vd ([1]; rat) | clearance ([1]; rat) | half-life ([1]; rat) | pIC50 [2] | AUC(0-inf) ([1]; mouse) | AUC(0-t) ([1]; mouse) | C0 ([1]; mouse) | MRT inf ([1]; mouse) | MRT last ([1]; mouse) | Vd ([1]; mouse) | clearance ([1]; mouse) | half-life ([1]; mouse)
O=C(Cc1cccc(Cl)c1)Nc1cncc2cn[nH]c12 | 216 ng·h/mL and 364 ng·h/mL | 216 ng·h/mL and 356 ng·h/mL | 986 ng/mL and 1030 ng/mL | 25.6 min and 15.7 min | 15.4 min and 23.3 min | 0.604 L/kg and 0.594 L/kg | 38.6 mL/min/kg and 25.6 mL/min/kg | 14.4 min and 19.9 min | 5.68 | – | – | – | – | – | – | – | –
COC1(C(=O)Nc2cncc3ccc(S(C)(=O)=O)cc23)CCOc2ccc(Cl)cc21 (stereo not drawn) | – | – | – | – | – | – | – | – | 6.37 | 51.9 ng·h/mL and 61.9 ng·h/mL | 50.3 ng·h/mL | 142 ng/mL and 157 ng/mL | 31.3 min and 26.9 min | 27.4 min and 24.5 min | 5.03 L/kg and 3.65 L/kg | 161 mL/min/kg and 135 mL/min/kg | 25.3 min and 22.1 min
Cc1c(N)cncc1NC(=O)Cc1cccc(Cl)c1 | 210 ng·h/mL and 187 ng·h/mL | 209 ng·h/mL and 185 ng·h/mL | 485 ng/mL and 446 ng/mL | 28.8 min and 30.5 min | 29.5 min and 27.3 min | 1.21 L/kg and 1.28 L/kg | 39.8 mL/min/kg and 44.6 mL/min/kg | 28.2 min and 25 min | 5.37 | – | – | – | – | – | – | – | –
Cn1ncc2cncc(NC(=O)Cc3cccc(Cl)c3)c21 | 178 ng·h/mL and 250 ng·h/mL | 178 ng·h/mL and 248 ng·h/mL | 820 ng/mL and 1030 ng/mL | 19.3 min and 15.2 min | 14.9 min and 18.1 min | 0.709 L/kg and 0.64 L/kg | 46.7 mL/min/kg and 34.6 mL/min/kg | 14.9 min and 17.9 min | 5.82 | – | – | – | – | – | – | – | –
O=C(Cc1cccc(Cl)c1)Nc1cnc2ccccn12 | 285 ng·h/mL and 249 ng·h/mL | 284 ng·h/mL and 247 ng·h/mL | 663 ng/mL and 588 ng/mL | 26.8 min and 26.9 min | 26.4 min and 25.6 min | 0.788 L/kg and 0.895 L/kg | 29.2 mL/min/kg and 33.5 mL/min/kg | 25.6 min and 22.8 min | 5.10 | – | – | – | – | – | – | – | –
CS(=O)(=O)c1ccc2cncc(NC(=O)C3CNC(=O)c4ccc(Cl)cc43)c2c1 (stereo not drawn) | 177 ng·h/mL and 160 ng·h/mL | 175 ng·h/mL and 157 ng·h/mL | 636 ng/mL and 540 ng/mL | 25.6 min and 22 min | 20.7 min and 22.8 min | 1.08 L/kg and 1.38 L/kg | 49 mL/min/kg and 54.2 mL/min/kg | 19.3 min and 23.4 min | 5.56 | – | – | – | – | – | – | – | –
CNS(=O)(=O)N1Cc2ccc(Cl)cc2C(C(=O)Nc2cncc3ccccc23)C1 (stereo not drawn) | 185 ng·h/mL and 255 ng·h/mL and 157 ng·h/mL | 183 ng·h/mL and 254 ng·h/mL and 155 ng·h/mL | 507 ng/mL and 850 ng/mL and 519 ng/mL | 31.6 min and 38.9 min and 23.9 min | 36.1 min and 30.6 min and 22.1 min | 1.75 L/kg and 1.07 L/kg and 1.5 L/kg | 45.1 mL/min/kg and 33.3 mL/min/kg and 62.7 mL/min/kg | 41 min and 32.2 min and 20 min | 6.83 | – | – | – | – | – | – | – | –
O=C(Nc1cncc2ccccc12)C1CN(S(=O)(=O)C2CC2)Cc2ccc(Cl)cc21 (stereo not drawn) | – | – | – | – | – | – | – | – | 6.51 | 112 ng·h/mL and 120 ng·h/mL | 109 ng·h/mL and 116 ng·h/mL | 314 ng/mL and 396 ng/mL | 17.5 min and 18 min | 16 min and 15.5 min | 1.3 L/kg and 1.25 L/kg | 74.5 mL/min/kg and 69.4 mL/min/kg | 10.7 min and 12.7 min
O=C(Nc1cncc2cc(Cl)ccc12)C1CCS(=O)(=O)c2ccc(Cl)cc21 (stereo not drawn) | 2140 ng·h/mL and 2940 ng·h/mL | 1940 ng·h/mL and 2700 ng·h/mL | 769 ng/mL and 1200 ng/mL | 193 min and 199 min | 148 min and 151 min | 0.774 L/kg and 0.556 L/kg | 3.9 mL/min/kg and 2.9 mL/min/kg | 141 min and 133 min | 6.08 | – | – | – | – | – | – | – | –
O=C(Cc1cccc(Cl)c1)Nc1c[nH]c(=O)c2ccccc12 | 200 ng·h/mL and 464 ng·h/mL | 192 ng·h/mL and 458 ng·h/mL | 496 ng/mL and 718 ng/mL | 42.7 min and 34.1 min | 29.2 min and 40.5 min | 1.42 L/kg and 0.802 L/kg | 41.6 mL/min/kg and 19.6 mL/min/kg | 26.2 min and 25.4 min | < 4.00 | – | – | – | – | – | – | – | –
Cc1nnc(CN2Cc3ccc(Cl)cc3C(C(=O)Nc3cncc4ccccc34)C2)[nH]1 (stereo not drawn) | 143 ng·h/mL and 182 ng·h/mL | 142 ng·h/mL and 178 ng·h/mL | 621 ng/mL and 588 ng/mL | 28.7 min and 20.8 min | 19.7 min and 25.8 min | 1.21 L/kg and 1.32 L/kg | 58.3 mL/min/kg and 46.8 mL/min/kg | 18.7 min and 22.1 min | 6.12 | – | – | – | – | – | – | – | –
O=C(Nc1cncc2cc(F)ccc12)C1CCS(=O)(=O)c2ccc(Cl)cc21 (stereo not drawn) | 875 ng·h/mL and 1050 ng·h/mL | 869 ng·h/mL and 1030 ng·h/mL | 655 ng/mL and 704 ng/mL | 118 min and 107 min | 104 min and 111 min | 1.03 L/kg and 0.95 L/kg | 9.52 mL/min/kg and 8.12 mL/min/kg | 69.6 min and 78 min | 6.11 | – | – | – | – | – | – | – | –
COc1ccc2cncc(NC(=O)[C@H]3CCNc4cc(Cl)c(Cl)cc43)c2c1 (stereo in doubt) | – | – | – | – | – | – | – | – | > 7.30 and 7.08 and 7.27 | 113 ng·h/mL and 130 ng·h/mL | 113 ng·h/mL and 128 ng·h/mL | 179 ng/mL and 202 ng/mL | 28.6 min and 30.8 min | 27.6 min and 28.9 min | 2.09 L/kg and 1.97 L/kg | 73.4 mL/min/kg and 64 mL/min/kg | 16.1 min and 19.4 min
NC(=O)c1cc2c(NC(=O)C3CCOc4ccc(Cl)cc43)cncc2s1 (stereo not drawn) | 488 ng·h/mL and 612 ng·h/mL | 485 ng·h/mL and 604 ng·h/mL | 706 ng/mL and 898 ng/mL | 77.4 min and 69 min | 65.4 min and 70.2 min | 1.18 L/kg and 1.06 L/kg | 17.1 mL/min/kg and 13.7 mL/min/kg | 75 min and 84 min | 6.12 | – | – | – | – | – | – | – | –
O=C(Cc1cccc(Cl)c1)Nc1cnn2ccccc12 | 209 ng·h/mL and 179 ng·h/mL | 201 ng·h/mL and 176 ng·h/mL | 652 ng/mL and 621 ng/mL | 31.1 min | 25.4 min and 27.5 min | 1.24 L/kg and 1.44 L/kg | 39.8 mL/min/kg and 46.6 mL/min/kg | 29.4 min and 33.7 min | 4.95 | – | – | – | – | – | – | – | –
Cc1cccc2cncc(NC(=O)Cc3cccc(Cl)c3)c12 | 206 ng·h/mL and 112 ng·h/mL | 203 ng·h/mL and 111 ng·h/mL | 934 ng/mL and 490 ng/mL | 21.8 min and 18.2 min | 16.2 min and 19.9 min | 0.737 L/kg and 1.83 L/kg | 40.4 mL/min/kg and 84.8 mL/min/kg | 24.9 min and 34.8 min | 6.48 | – | – | – | – | – | – | – | –
O=C(Cc1cccc(Cl)c1)Nc1cnccc1C1CC1 | 77 ng·h/mL and 54.5 ng·h/mL | 74.1 ng·h/mL and 53.2 ng·h/mL | 260 ng/mL and 176 ng/mL | 20.7 min and 17.8 min | 15.4 min and 18.5 min | 1.92 L/kg and 3.14 L/kg | 108 mL/min/kg and 153 mL/min/kg | 12.5 min and 15.8 min | 5.14 | – | – | – | – | – | – | – | –
